Measured values published in patent publication US20130253056A1, “Continuous Administration of Levodopa and/or Dopa Decarboxylase Inhibitors and Compositions for Same” (NEURODERM, LTD., priority 2009, published 2013).

Key:
[1] = in vivo, sc
[2] = Effect of continuous subcutaneous carbidopa on pharmacokinetics of levodopa and carbidopa in pigs
Text: (§1) In this experiment, the purpose was to determine the effect of continuous subcutaneous administration of carbidopa, with co-administration of oral L-dopa/carbidopa, on the pharmacokinetics of levodopa in pigs.

[3] = in vivo
Text: as §1

[4] = mice
Experimental: Mice were implanted subcutaneously with Alzet pumps containing Saline (Negative Control), Vehicle or Carbidopa solution. A day following implantation LD/CD was administered orally Q8 h. The level of levodopa and dopamine in the brain was determined following the 4th oral dose of LD/CD.

[5] = man, monkey and dog; cited from earlier work
[6] = cited from earlier work
[7] = continuous subcutaneous carbidopa co-administered with any oral LD preparation

## C[C@@](Cc1ccc(O)c(O)c1)(NN)C(=O)O [Carbidopa, (−)-L-α-hydrazino-α-methyl-β-(3,4-dihydroxybenzene)propanoic acid monohydrate]
[1]
  histological analysis of infusion sites (local tolerance): No histological treatment-related abnormalities were observed
[2]
  effect of increased carbidopa oral dose or frequency on the PK profile of levodopa: did not considerably improve
[2]; [7]
  increase of the AUC of levodopa: > 2 ×
  increase of the half live (t½) of levodopa: > 2 ×
[3]
  treatment related local or systemic toxicity: No signs of treatment related local or systemic toxicity were observed
[4]; oral LD/CD with continuous SC carbidopa 15 mg/kg/d
  levels of plasma LD: higher levels of plasma LD
[4]; seven hours post oral LD (LD/CD 32/8 mg/kg TID), continuous SC carbidopa 15 mg/kg/d
  dopamine levels in the brain: significantly higher
[5]
  fraction of an oral dose absorbed: 40-70%
[6]
  solubility in alcohol, chloroform or ether: practically insoluble
  solubility in water: only slightly soluble in water
